# From the supplement of paper PMC11208160
# Assay: recombinant barcode read abundance after kanamycin selection (control-corrected) (log10(CPM+1)); higher = more efficient recombination; sequences stand for … in AGTGCAGAGAAAATCGGCCAGTTTTCTCTGCCTGCAGTCCGCATGCCGT…AGATTTATGCAGCGGACTGCCTTTCTCCCAAAGTGATAAACCGGACAGTATCATGGACCGGTTTTCCCGGTAATCCGTATTTGCAAGGTTGGTTTCACT; site = the 11-nt target
# In short: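 Values are log10(CPM+1) from a pooled E. coli screen of targets paired with IS621 bridge RNA target-binding loops. Recombination efficiency here means counts per million of recombinant-junction barcodes, averaged and control-corrected. Plates were chloramphenicol/ampicillin LB agar for the control and chloramphenicol/ampicillin/kanamycin with 0.1 mM IPTG, two replicates each.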
# 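Note: IS621 recombinase and bridge RNA in Escherichia coli cells.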
row,Sequence,recombinant barcode read abundance (log10)
1,TCGTGTTCTTGGGTTCTAACCTGTTGCTA (site CCTTGTTCTTA),0.0623
2,TCGTGTTCTTGGGTTCTAACCTGTTGCTA (site TCGTGTTCTTA),0.0576
3,TCGTTCGCTTGGGTTCTAACCTGTTGCCT (site TCCTTCACTAG),0.0905
4,TCGTTCGCTTGGGTTCTAACCTGTTGCCT (site TCGTTCGCTAG),0.21
5,TCTAAGTCTTGGGTTCTAACCTGTTGCCC (site TCTAAGTCTAG),0.132
6,TCTAAGTCTTGGGTTCTAACCTGTTGCCC (site TCTAAGTCTCG),0.0902
7,TCTAAGTCTTGGGTTCTAACCTGTTGCCC (site TCTAAGTCTGG),0.194
8,TCTAAGTCTTGGGTTCTAACCTGTTGCCC (site TCTAAGTCTTG),0.00905
9,TCTAAGTCTTGGGTTCTAACCTGTTGCCT (site TCTAAGTCTAG),0.134
10,TCTAAGTCTTGGGTTCTAACCTGTTGCCT (site TCTAAGTCTCG),0.132
11,TCTAAGTCTTGGGTTCTAACCTGTTGCCT (site TCTAAGTCTGG),0.172
12,TCTAAGTCTTGGGTTCTAACCTGTTGCCT (site TCTAAGTCTTG),0.281
13,TCTAGATCTTGGGTTCTAACCTGTTGCCT (site TCTAGAACTAG),0.0897
14,TCTAGATCTTGGGTTCTAACCTGTTGCCT (site TCTAGACCTAG),0.0764
15,TCTAGATCTTGGGTTCTAACCTGTTGCCT (site TCTAGAGCTAG),0.135
16,TCTAGATCTTGGGTTCTAACCTGTTGCCT (site TCTAGATCTAG),0.0616
17,TCTATCCCTTGGGTTCTAACCTGTTGCCT (site TCAATCCCTAG),0.113
18,TCTATCCCTTGGGTTCTAACCTGTTGCCT (site TCCATCCCTAG),0.105
19,TCTATCCCTTGGGTTCTAACCTGTTGCCT (site TCGATCCCTAG),0.0408
20,TCTATCCCTTGGGTTCTAACCTGTTGCCT (site TCTATCCCTAG),0.203
21,TCTATGACTTGGGTTCTAACCTGTTGCCT (site TCTATGACTAG),0.0099
22,TCTATGACTTGGGTTCTAACCTGTTGCCT (site TCTATGTCTAG),0.187

row,Sequence,recombinant barcode read abundance (log10)
1,TCTCAGCCTTGGGTTCTAACCTGTTGCCT (site TCTCAGCCTAG),0.453
2,TCTCAGCCTTGGGTTCTAACCTGTTGCCT (site TCTCCGCCTAG),0.0825
3,TCTCAGCCTTGGGTTCTAACCTGTTGCCT (site TCTCGGCCTAG),0.291
4,TCTCAGCCTTGGGTTCTAACCTGTTGCCT (site TCTCTGCCTAG),0.0307
5,TCTGAAACTTGGGTTCTAACCTGTTGCCT (site TCCGAAACTAT),0.12
6,TCTGAAACTTGGGTTCTAACCTGTTGCCT (site TCTGAAACTAG),0.413
7,TCTGGGCCTTGGGTTCTAACCTGTTGCTT (site TCTGGGCCTAA),0.0924
8,TCTGGGCCTTGGGTTCTAACCTGTTGCTT (site TCTGGGCCTTA),0.525
9,TCTGGGGCTTGGGTTCTAACCTGTTGCAG (site TCTGGGGCTCA),0.686
10,TCTGGGGCTTGGGTTCTAACCTGTTGCAG (site TCTGGGGCTCC),0.189
11,TCTGGGGCTTGGGTTCTAACCTGTTGCAG (site TCTGGGGCTCG),0.159
12,TCTGGGGCTTGGGTTCTAACCTGTTGCAG (site TCTGGGGCTCT),2.15
13,TCTGTCTCTTGGGTTCTAACCTGTTGCCT (site TCTGTCTCTAG),2.03
14,TCTGTCTCTTGGGTTCTAACCTGTTGCCT (site TGTGTCTCTAC),0.0569
15,TCTTGGACTTGGGTTCTAACCTGTTGCTA (site TCTTGGACTAA),0.214
16,TCTTGGACTTGGGTTCTAACCTGTTGCTA (site TCTTGGACTCA),0.0354
17,TCTTGGACTTGGGTTCTAACCTGTTGCTA (site TCTTGGACTGA),0.0809
18,TCTTGGACTTGGGTTCTAACCTGTTGCTA (site TCTTGGACTTA),0.0613
19,TGAAAGTCTTGGGTTCTAACCTGTTGCCT (site TGAAAGTCTAG),0.727
20,TGAAAGTCTTGGGTTCTAACCTGTTGCCT (site TGAACGTCTAG),0.0267
21,TGAAAGTCTTGGGTTCTAACCTGTTGCCT (site TGAAGGTCTAG),0.15
22,TGAAAGTCTTGGGTTCTAACCTGTTGCCT (site TGAATGTCTAG),0.0411

row,Sequence,recombinant barcode read abundance (log10)
1,TGAACTCCTTGGGTTCTAACCTGTTGCCT (site GTAACTCCTAG),0.118
2,TGAACTCCTTGGGTTCTAACCTGTTGCCT (site TGAACTCCTAG),0.122
3,TGACATTCTTGGGTTCTAACCTGTTGCTT (site GGACATTCTAA),0.139
4,TGACATTCTTGGGTTCTAACCTGTTGCTT (site TGACATTCTAA),0.13
5,TGAGACACTTGGGTTCTAACCTGTTGCTG (site TGACACACTCA),0.0729
6,TGAGACACTTGGGTTCTAACCTGTTGCTG (site TGAGACACTCA),2.68
7,TGAGACTCTTGGGTTCTAACCTGTTGCCT (site TGAGACTCTAG),2.2
8,TGAGACTCTTGGGTTCTAACCTGTTGCCT (site TGCGACTCTAG),0.0734
9,TGAGACTCTTGGGTTCTAACCTGTTGCCT (site TGGGACTCTAG),0.198
10,TGAGACTCTTGGGTTCTAACCTGTTGCCT (site TGTGACTCTAG),0.463
11,TGAGCTACTTGGGTTCTAACCTGTTGCAC (site TGAGCTACTGT),1.16
12,TGAGCTACTTGGGTTCTAACCTGTTGCAC (site TGTGCGACTGT),0.0102
13,TGAGGATCTTGGGTTCTAACCTGTTGCCT (site TGAGGATCTAG),0.99
14,TGAGGATCTTGGGTTCTAACCTGTTGCCT (site TGAGGCACTAG),0.503
15,TGAGGGACTTGGGTTCTAACCTGTTGCCT (site CTCATAGCTTC),0.0546
16,TGAGGGACTTGGGTTCTAACCTGTTGCCT (site TGAGGGACTAG),1.9
17,TGAGTCCCTTGGGTTCTAACCTGTTGCTT (site TGAGTACCTAA),0.0411
18,TGAGTCCCTTGGGTTCTAACCTGTTGCTT (site TGAGTCCCTAA),1.67
19,TGAGTCCCTTGGGTTCTAACCTGTTGCTT (site TGAGTGCCTAA),0.0566
20,TGAGTCCCTTGGGTTCTAACCTGTTGCTT (site TGAGTTCCTAA),0.125
21,TGAGTGCCTTGGGTTCTAACCTGTTGCTT (site TGAGTACCTAA),0.682
22,TGAGTGCCTTGGGTTCTAACCTGTTGCTT (site TGAGTCCCTAA),0.116

row,Sequence,recombinant barcode read abundance (log10)
1,TGAGTGCCTTGGGTTCTAACCTGTTGCTT (site TGAGTGCCTAA),1.1
2,TGAGTGCCTTGGGTTCTAACCTGTTGCTT (site TGAGTTCCTAA),0.0622
3,TGATCCTCTTGGGTTCTAACCTGTTGCTA (site AGGTCCTCTTA),0.0555
4,TGATCCTCTTGGGTTCTAACCTGTTGCTA (site TGATCCTCTTA),0.513
5,TGCACTCCTTGGGTTCTAACCTGTTGCCT (site TACAGTCCTAG),0.0234
6,TGCACTCCTTGGGTTCTAACCTGTTGCCT (site TGCACTCCTAG),0.0424
7,TGCATAGCTTGGGTTCTAACCTGTTGCAG (site CTGCAGTCTTG),0.00928
8,TGCATAGCTTGGGTTCTAACCTGTTGCAG (site TGCATAGCTCT),1.49
9,TGCCAGACTTGGGTTCTAACCTGTTGCGT (site AGCCACACTAC),0.0104
10,TGCCAGACTTGGGTTCTAACCTGTTGCGT (site TGCCAGACTAC),1.74
11,TGCCCCTCTTGGGTTCTAACCTGTTGCCG (site ACAAGGCCTAT),0.0768
12,TGCCCCTCTTGGGTTCTAACCTGTTGCCG (site TGCCCCTCTCG),1.46
13,TGCCCTCCTTGGGTTCTAACCTGTTGCTT (site TCCTCTCCTAA),0.0862
14,TGCCCTCCTTGGGTTCTAACCTGTTGCTT (site TGCCCTCCTAA),0.0976
15,TGCCTCTCTTGGGTTCTAACCTGTTGCTA (site GTTAGACCTAG),0.0422
16,TGCCTCTCTTGGGTTCTAACCTGTTGCTA (site TGCCTCTCTTA),0.279
17,TGCGATACTTGGGTTCTAACCTGTTGCTT (site ACACGAGCTCT),0.0799
18,TGCGATACTTGGGTTCTAACCTGTTGCTT (site TGCGATACTAA),0.223
19,TGCGGGTCTTGGGTTCTAACCTGTTGCCT (site GAGCTTGCTTC),0.273
20,TGCGGGTCTTGGGTTCTAACCTGTTGCCT (site TGCGGGTCTAG),0.702
